Laboratory results published in the METLIN SMRT retention time set (Domingo-Almenara et al. 2019).

assay: gradient 5% acetonitrile 3 min, to 50% in 2 min, to 85% in 15 min, held 3 min, 100 µL/min; conditions: column: Zorbax Extend-C18 2.1 x 50 mm; eluents: water / acetonitrile, 0.1% formic acid
How it was run: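 In both positive and negative ionization mode, a quadrupole time-of-flight mass spectrometer coupled to HPLC analyzed pure standards run in mixtures of ~100 molecules. The Zorbax Extend-C18 column (2.1 × 50 mm, 1.8 μm) was operated at 100 μL/min with water and acetonitrile, each containing 0.1% formic acid. The dead volume was 40 μL and the dwell volume 900 μL. Retention time came from adduct peaks that were computationally picked and individually inspected by hand.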

Row | SMILES | RP-LC retention time [s]
1 | COc1ccc(CCc2nc(-c3ccc4oc(C)nc4c3)no2)cc1 | 1210
2 | O=C(Nc1ccc(F)c(Cl)c1)N1CCCC1c1nc(-c2ccc(F)cc2F)no1 (stereo not drawn) | 1070
3 | O=C1CN(S(=O)(=O)c2ccc(Cl)s2)CC2(CCCCC2)N1Cc1ccccc1 | 1180
4 | CCOc1ccc(-c2ccc(=O)n(Cc3nc(-c4cccc(OC)c4)no3)n2)cc1 | 949
5 | COC(=O)c1ccc(NC(=O)Cn2c(-c3cccnc3)nc3ccccc32)cc1 | 708
6 | Cc1ccc(-c2cc(OCC(N)=O)c3cc(NC(=O)COc4ccccc4)ccc3n2)cc1 | 700
7 | Cc1ccc(CNC(=O)C2(C)CCC(=O)N2CCc2c[nH]c3ccccc23)cc1 (stereo not drawn) | 805
8 | O=C(CSc1nnc(-c2cccc(Cl)c2)o1)Nc1ccc(C(F)(F)F)cc1 | 1050
9 | O=C(COc1ccc(F)cc1)NC1(c2nc(-c3ccncc3)no2)CCCCC1 | 934
10 | COc1ccc(OCc2nc(CCN(C)C(=O)c3cc(OC)cc(OC)c3)no2)cc1 | 810
11 | Cc1c(Cl)cccc1NC(=O)Cn1c(C)nc2c(sc3nc(-c4ccccc4)ccc32)c1=O | 1210
12 | NC(=O)c1c(NC(=O)C2COc3ccccc3O2)sc2c1CCN(Cc1ccccc1)C2 (stereo not drawn) | 587
13 | COc1ccc(N2CC(c3noc(-c4ccc(C)cc4)n3)CC2=O)cc1OC (stereo not drawn) | 909
14 | CCc1nnc([C@@H]2CC(F)(F)CN2C(=O)Cc2c(C)noc2C)o1 | 681
15 | CC(C)c1cc(-c2ccc(F)c3ccccc23)nc(N)n1 | 882
16 | Cc1cccc2c(C(N)=O)cc(-c3ccccc3)nc12 | 904
17 | O=C(Nc1cc(-c2ccccn2)no1)c1ccc(Br)cc1 | 868
18 | CC1CCN(S(=O)(=O)c2ccc(-c3nnc(C4CC4)o3)o2)CC1 | 933
19 | Cc1cccc(NC(=O)Cn2c(C)nc3c(sc4nc(-c5ccccc5)ccc43)c2=O)c1C | 1170
20 | O=C(Nc1c(-c2ccccc2)nc2ccccn12)c1ccc([N+](=O)[O-])cc1 | 654
21 | CSc1ccc(C2c3[nH]c4ccccc4c3CCN2C(=O)c2cccs2)cc1 (stereo not drawn) | 1220
22 | O=C(NC1CCCC1)C1CCCN(c2ncnc3c2oc2ccccc23)C1 (stereo not drawn) | 713

Row | SMILES | RP-LC retention time [s]
23 | COc1ccc(C2C(C)C(=O)C(C)C(c3ccc(OC)cc3)N2N=O)cc1 (stereo not drawn) | 1000
24 | CC1(C(=O)NC2CCCCCCC2)CN(S(C)(=O)=O)CC(=O)N1c1cccc(Cl)c1 (stereo not drawn) | 963
25 | COc1ccc(OC)c(CNC(=O)Cc2nnc(-c3cnccn3)o2)c1 | 616
26 | COC(=O)c1c(NCC(C)C)c2cc(F)ccc2[nH]c1=O | 734
27 | O=C(NC1CCN(c2cc(-c3ccccc3)[nH]n2)C1)c1ccsc1 (stereo not drawn) | 660
28 | CN(C)c1ccc(C(=O)Nc2cc(-c3cccnc3)no2)cc1 | 738
29 | COc1cccc(-c2csc(Cc3nc(-c4ccc(Br)cc4)no3)n2)c1 | 1280
30 | Cc1nn(-c2nc(-c3ccc(Cl)cc3)cs2)c(C)c1CC(=O)Nc1ccccc1F | 1260
31 | CCOc1ccc(NC(=O)Cn2nc3c(Oc4ccccc4)nccn3c2=O)cc1 | 822
32 | O=C(NCc1cccnc1-c1ccc(F)cc1)c1cccc(Br)c1 | 734
33 | COc1ccc2c(c1)C1(CCN(S(=O)(=O)c3cccc(F)c3)C1)C(=O)N2 (stereo not drawn) | 835
34 | COc1ccc(C(=O)Nc2cc(OC)nc(OC)n2)cc1 | 798
35 | CN(Cc1ccc(OC(F)(F)F)cc1)C1CCc2nnc(C3CCOCC3)n2CC1 (stereo not drawn) | 616
36 | CCOC(=O)c1nc(N(C)c2ccccc2C)c2ccccc2n1 | 916
37 | O=C(CSc1ccc(N2CCN(c3ccc(F)cc3)CC2)nn1)NCC1CCCO1 (stereo not drawn) | 689
38 | Cc1nc2cc(-c3noc(-c4ccccc4)n3)ccc2o1 | 1050
39 | CCOc1cc(-c2noc(-c3nnn4c3COC(c3ccc(Cl)cc3)C4)n2)ccc1OC (stereo not drawn) | 1190
40 | CC1(CNC(=O)c2ccc(Br)cc2)CCOCC1 | 784
41 | c1cc(-c2noc(-c3ccsc3)n2)cc(N2CCCC2)n1 | 664
42 | O=C(NCCN1CCOCC1)c1ccc(Nc2c(-c3ccccc3)nc3cnccn23)cc1 | 581
43 | CN1CCN(C(CNC(=O)c2ccc3c(c2)OCO3)c2ccc3c(c2)OCO3)CC1 (stereo not drawn) | 614
44 | Cc1ccccc1-c1noc(-c2nn(-c3ccc(Cl)cc3)ccc2=O)n1 | 1010

More lines, now with the values ahead:

Row | RP-LC retention time [s] | SMILES
45 | 782 | Cc1ccc(CNC(=O)C2CCN(C(=O)c3ncn4c3COC(c3ccccc3)C4)CC2)cc1 (stereo not drawn)
46 | 671 | CCc1ccc(C2=C(C)C(N3CCC(C(=O)NCCN4CCCC4)CC3)=NS2(=O)=O)cc1
47 | 882 | Cc1cc(N2CCC(NC(=O)Nc3cccc(F)c3)C2=O)ccc1F (stereo not drawn)
48 | 993 | COc1cccc(-n2c(N3CCCC(C(=O)Nc4ccc(F)c(F)c4)C3)nc3ccsc3c2=O)c1 (stereo not drawn)
49 | 884 | O=C(CCn1cnc2cc(-c3noc(COc4ccc(Cl)cc4)n3)ccc21)N1CCCCCC1
50 | 658 | Cn1cnc(S(=O)(=O)N2CCOc3ccc(NC(=O)C4CC4)cc3C2)c1
51 | 731 | CCc1nnc2cc(N3CCN(C(=O)c4ccc(C(C)C)cc4)CC3)cnn12
52 | 932 | Cc1ccccc1NC(=O)N1CCCC1c1nc(-c2ccc(F)cc2F)no1 (stereo not drawn)
53 | 930 | CCc1nc(-c2csc(S(=O)(=O)N3CCC(C(=O)Nc4ccc(OC)cc4)CC3)c2)no1
54 | 674 | O=C(Cn1ccnc1-c1ccnc(N2CCSCC2)c1)NCc1ccc(Cl)cc1
55 | 686 | Cn1cc(CN2CCCC(COc3ccccc3C(=O)NC3CC3)C2)c2ccccc21 (stereo not drawn)
56 | 858 | COc1ccc(S(=O)(=O)NCc2ccc3c(c2)CCN3C(=O)CC(C)C)cc1OC
57 | 658 | Cc1ccc(NC(=O)Cn2c(N3CCOCC3)nc(C)cc2=O)c(C)c1
58 | 628 | COc1ccc(N2CCN(C(=O)C3CCN(S(=O)(=O)c4cn(C)cn4)CC3)CC2)cc1
59 | 784 | CC(=O)N1CCc2sc(C(=O)N3CCN(c4ccccc4F)CC3)cc2C1
60 | 645 | O=C(CCc1cc2ccccc2[nH]c1=O)N1CCN(c2ncccn2)CC1
61 | 588 | CCCCNC(=O)C1CCN(c2nc3ccc(-c4cccnc4)nc3s2)CC1
62 | 945 | Cc1ccc(N2CCC(NC(=O)Nc3cccc(C)c3C)C2=O)cc1 (stereo not drawn)
63 | 707 | Cc1noc(COC2CCN(C(=O)c3ccc4ccccc4n3)CC2)n1
64 | 1110 | Cc1ccc(CNC(=O)C2(C)CCCN(C(=O)Nc3ccc(C)c(Cl)c3)C2)cc1 (stereo not drawn)
65 | 927 | Cc1cc(S(=O)(=O)NCC2CCN(C(=O)NC(C)(C)C)CC2)c(Cl)cc1Cl
66 | 716 | CCCNC(=O)Nc1cc2c(cc1N1CCC(C(=O)OCC)CC1)n(C)c(=O)n2C

Row | RP-LC retention time [s] | SMILES
67 | 551 | COc1ccc(C(=O)NCCc2cn3cccc(C)c3n2)c(OC)c1
68 | 986 | CCCCCNC(=O)CN1c2ccc(F)cc2-c2ccccc2S1(=O)=O
69 | 722 | CCCn1cnc2cc(CNC(=O)c3ccc(-n4c(C)ccc4C)cc3)ccc21
70 | 723 | Cc1c(S(=O)(=O)N2c3ccccc3CC2C)cc(C(=O)N2CCC(C)CC2)n1C (stereo not drawn)
71 | 549 | CN1CCN(CCNC(=O)c2cccc(N3CCNC(c4ccccc4)C3)n2)CC1 (stereo not drawn)
72 | 638 | COc1ccc(Nc2c(C(=O)N3CCCCCC3)cnc3nc(C)ccc23)cc1
73 | 916 | Cc1c(Cl)cccc1NS(=O)(=O)c1cc2c(s1)CCN(C(=O)C1CCC1)C2
74 | 812 | CC(C)n1c(N2CCN(C(=O)c3cccs3)CC2)cc(=O)n(C(C)C)c1=O
75 | 577 | Cn1cc(CC(=O)N2CCN(S(=O)(=O)C3CC3)CC2)c2ccccc21
76 | 1180 | COc1cc(NC(=O)C2CCCN(c3nc4ccccc4nc3C(F)(F)F)C2)cc(OC)c1 (stereo not drawn)
77 | 832 | CCN(CC)C(=O)CN1C(=O)C2CCCCN2c2ccc(S(=O)(=O)N3CCCC3)cc21 (stereo not drawn)
78 | 765 | CCCN1C(=O)Cc2ccccc2C1C(=O)NCc1ccc2c(c1)OCO2 (stereo not drawn)
79 | 981 | CCOC(=O)C1CCN(c2cc3c(cc2NC(=O)CC2CCCCC2)n(C)c(=O)c(=O)n3C)CC1
80 | 982 | COCC(=O)N(CC(=O)N1CCc2sccc2C1COc1ccc(C)cc1C)CC1CC1 (stereo not drawn)
81 | 822 | Cc1nncn1C1CCN(S(=O)(=O)c2ccc(CC(C)C)cc2)CC1
82 | 806 | CC1CCc2cc(F)cc3c(=O)c(C(=O)O)cn1c23 (stereo not drawn)
83 | 886 | Cc1ccc(N2C=C(C(=O)N3CCOCC3)S(=O)(=O)c3ccc(Cl)cc32)cc1F
84 | 613 | CCN(CCN(C)C)c1ccc(C(=O)O)cc1NS(=O)(=O)c1ccc(F)cc1
85 | 780 | CCn1cc(C(=O)NCCc2cccs2)c(=O)c2cc(OC)ccc21
86 | 959 | CCN1c2cc(C(=O)NCCC3=CCCCC3)ccc2C(=O)N2CCCCC21 (stereo not drawn)
87 | 576 | O=C(NCC(=O)N1CCN(c2ccccn2)CC1)c1cncc(Br)c1
88 | 846 | CCC(CC)C(=O)Nc1nc(-c2ccc3c(c2)NC(=O)CO3)cs1
